This is an account of results in PubChem BioAssay AID179 (DTP/NCI, 2004).

What is called EC50 is the midpoint of the concentration-response curve. Usually IC50 stands for the concentration needed to halve the response being measured. The low end stands for inhibition by little substance, the high end for a need for much substance.

Each structure is given as a SMILES string. Several values for one entry are separate records, joined by “and”; a condition that tells them apart may be missing. Equal values may be shown once. Activity calls are given as the source filed them.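 The calls were made as follows: active = compounds giving half or more protection of infected cells from virus-caused growth loss, again on retest; inactive = the rest.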 Where a SMILES comes first, the peptide text is derived from it. Bridges are numbered along the chain shown (N, C = ends).

The test system of this assay is CEM cells HIV-1 protection, formazan growth assay. The assay can be described thus: NCI AIDS Antiviral Assay. Particulars: for IC50: measured here: growth of uninfected CEM cells. The essentials:
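Screen of anti-HIV-1 activity in human CEM cells using a formazan-based growth measurement at five drug concentrations. Hits with 50% or greater protection were repeated, and confirmation required reproducible complete protection.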

With `C[n+]1c2ccccc2n2c3ccccc3c(NCCc3ccccn3)c(C#N)c21`, the EC50 is above 20 µM and the IC50 was determined as 1.29 µM.

Regarding `Cc1nnc2c3c(-c4ccccc4)c(-c4ccccc4)oc3nc(N(C)C)n12`, the outcome was inactive.

Regarding `CCC1C(=O)OCc2c1cc1n(c2=O)C(CC)c2c-1nc1ccccc1c2Cl` (stereo unspecified), the EC50 was above 10 µM and the 50% inhibitory concentration (IC50) amounted to 4.68 µM.

As to `Cc1ccc2nc(-c3ccc(N=Nc4cc(S(=O)(=O)O)c5ccccc5c4O)cc3)sc2c1S(=O)(=O)O`, the EC50 is above 50.1 µM and the IC50 was above 50.1 µM.

Turning to `Cc1cc(O)c2c(c1O)C(=O)C13C(=C2O)C(=O)C2C(O)C1C1C(O)C3C(=O)C3=C(O)c4c(O)cc(C)c(O)c4C(=O)C321` (stereo unspecified), the EC50 was above 45.7 µM and the half-maximal inhibitory concentration (IC50) worked out at 0.0977 µM.

For `CN(C)c1ccc(C=Nc2ccc(/C=C3\C=Cc4ccccc43)cc2)cc1`, the EC50 is above 20.4 µM and the half-inhibitory concentration (IC50) was above 20.4 µM.

Regarding `COC[C@@H](N=CC(C)(C)C)C(C)C`, the EC50 is above 200 µM and the IC50 is above 200 µM.

Consider `NC(N)=NS(=O)(=O)c1ccc(NC(=O)c2cccc3c(N)c4ccccc4nc23)cc1`, for which the EC50 is above 51.3 µM and the concentration for half-maximal inhibition (IC50) is 33.9 µM.

In the case of `CCCN1C(=O)/C(=C(/O)C(=O)OCC)C(c2ccc(OC)c(OC)c2)C1=O` (stereo unspecified), the outcome was inactive.

In the case of `COC1(OC)CCN(Cc2ccccc2)C1=O`, the EC50 was above 20 µM and the IC50 was 2.69 µM.

On to `Cn1c(-c2cccs2)cc(-c2cccs2)c1-c1ccco1`, for which the EC50 is above 200 µM and the half-inhibitory concentration (IC50) came to 30.2 µM.

As to `COc1ccc(NC(=O)CC(=O)NN)cc1`, the EC50 is above 200 µM and the IC50 is above 200 µM.

As to `CCOC(=O)CC(C)OC1CCCCO1` (stereo unspecified), the result was inactive.

Take `O=S(=O)(O)SCCCNCCCNCCCSS(=O)(=O)O`: the EC50 is above 200 µM and the 50% inhibitory concentration (IC50) amounted to 13.8 µM.

Consider `COc1ccccc1NC(=O)C1=C(C)NC(C)=C(C(=O)Nc2ccccc2OC)C1c1ccccc1F`, for which the result was inactive.

With `CC(=O)NC1=C(C)C(=O)c2c(nc3n2CCC3O)C1=O` (stereo unspecified), the EC50 was above 200 µM and the IC50 was 1.58 µM.

Turning to `NC(=O)Nc1c([N+](=O)[O-])cc(C(F)(F)F)cc1[N+](=O)[O-]`, the result was inactive.

With `C=CCN(N=O)C(=O)N(CCCC(NC(C)=O)C(=O)NCc1ccccc1)Cc1ccccc1` (stereo unspecified), the EC50 was above 40.7 µM and the IC50 is above 40.7 µM.

As for `CCC/C(=N\NC(=S)N1CCN(c2ccccn2)CC1)c1ccccn1`, the EC50 was above 19.5 µM and the half-inhibitory concentration (IC50) was determined as 0.011 µM.

For `CS(=O)(=O)N1CC(CCl)c2ccc(SSc3ccc4c(c3)N(S(C)(=O)=O)CC4CCl)cc21` (stereo unspecified), the result was inactive.

In the case of `CCOC(=O)C(=Cc1ccc(C(=O)OC)cc1)C(=O)OCC`, the EC50 is above 85.1 µM and the IC50 came to 12.6 µM.

`COc1ccc(/S(C)=N/S(=O)(=O)c2ccc(C)cc2)cc1` (stereo unspecified): the EC50 is above 288 µM and the IC50 amounted to 263 µM.

For `Cc1[nH]n(-c2ncc(C#N)c(=O)[nH]2)c(=O)c1CCO`, the EC50 is above 200 µM and the IC50 is above 200 µM.

For the compound `CC12CCC3[C@@H](CC3(C)C)C(O)(CCC1=O)C2` (stereo partly specified), the EC50 was above 200 µM and the IC50 was above 200 µM.

Consider `O=C1CSC(c2ccc([N+](=O)[O-])cc2)N1c1nc(-c2ccc3c(c2)CCCC3)cs1` (stereo unspecified), for which the 50% effective concentration (EC50) was 155 µM and the IC50 turned out to be 263 µM.

In the case of `COc1ccc2c(=O)c([Se]c3coc4cc(OC)ccc4c3=O)coc2c1`, the EC50 was above 60.3 µM and the 50% inhibitory concentration (IC50) is above 60.3 µM.

On to `CN(C)c1ccc(/C=c2\sc3nnc(-c4cccnc4)n3c2=O)cc1`, for which the EC50 was above 20.9 µM and the IC50 was above 20.9 µM.

Take `Nc1ccc2cc(S(=O)(=O)O)c(N=Nc3ccc(-c4ccc(N=Nc5c(S(=O)(=O)O)cc6cc(S(=O)(=O)O)cc(N)c6c5O)cc4)cc3)c(O)c2c1`: the result was inactive.

With `COc1cc2c(c3[nH]cc(C(=O)O)c(=O)c13)NC(=O)CS2`, the EC50 is above 200 µM and the IC50 is above 200 µM.

As to `CCN(CC)c1ccc2cc(C(=O)NCc3ccccc3)c(=N)oc2c1`, the EC50 was above 200 µM and the IC50 turned out to be 11 µM.

As for `CC(C1CCCC1=O)C1CCCC1=O` (stereo unspecified), the outcome was inactive.

In the case of `CC(=O)OC1(C#N)CC2OC1C1C2N=NN1C(=O)OC(C)(C)C` (stereo unspecified), the EC50 is above 209 µM and the half-maximal inhibitory concentration (IC50) was found to be 28.8 µM.

On to `CS(=O)(=O)Nc1ccc2c(c1)N(S(C)(=O)=O)CC2COS(C)(=O)=O` (stereo unspecified), for which the EC50 is above 200 µM and the IC50 is 40.7 µM.

As to `CCCCOP(=O)(OCCCC)/C(C#N)=C/c1ccco1`, the EC50 is above 219 µM and the IC50 came out at 178 µM.

Regarding `CCNCCN.[O-][Cl+3]([O-])([O-])[O-].[Pd+2].c1ccc(-c2ccccn2)nc1`, the EC50 is above 200 µM and the half-inhibitory concentration (IC50) was 30.9 µM.

For the compound `CC(CO)/[N+]([O-])=N/O` (stereo unspecified), the EC50 is above 479 µM.

For `Cc1nc(-n2nc(-c3ccccc3)cc2-c2ccccc2)sc1C(/C=C\c1ccc([N+](=O)[O-])cc1)=N/NC(=S)NN`, the EC50 is above 32.4 µM and the half-maximal inhibitory concentration (IC50) was above 32.4 µM.

`CC1CCCCN1CC(=O)c1ccc2c(c1)Sc1ccccc1O2` (stereo unspecified): the EC50 was above 200 µM and the IC50 was 8.13 µM.

As for `CCC(NC(C)c1ccccc1)C(=O)c1ccc(OCc2ccccc2)c(OCc2ccccc2)c1` (stereo unspecified), the EC50 is above 200 µM and the IC50 is above 200 µM.

As to `COc1ccc2c(c1OC)CC1COCC21` (stereo unspecified), the EC50 was above 200 µM and the concentration for half-maximal inhibition (IC50) is above 200 µM.

`Nc1ccc(C(=O)Oc2ccccc2)c(O)c1`: the EC50 is above 200 µM and the IC50 was above 200 µM.

Consider `CCOC(=O)c1cc(Br)c(-c2onc(C)c2Br)n1C`, for which the EC50 is above 200 µM and the half-inhibitory concentration (IC50) amounted to 89.1 µM.

As for `CCOC(=O)C1CSSCC(N)C(=O)N1` (stereo not drawn) (H-Cys-Cys-OEt; disulfide 1-2; configuration not given here), the EC50 is above 200 µM and the half-inhibitory concentration (IC50) was above 200 µM.

For `COc1ccccc1N/N=c1\c2nc3ccccc3nc1n(-c1ccccc1C)c(=S)n2-c1ccc(Cl)cc1`, the EC50 is above 200 µM and the concentration for half-maximal inhibition (IC50) amounted to 178 µM.

In the case of `S=C1N(/N=C/c2c3ccccc3cc3ccccc23)C(=Nc2ccccc2)C(=Nc2ccccc2)N1c1ccccc1`, the EC50 was above 200 µM and the 50% inhibitory concentration (IC50) is above 200 µM.

Turning to `[Co+2].[O-]c1ccccc1C=NCc1ccccc1.[O-]c1ccccc1C=NCc1ccccc1`, the EC50 is above 19.5 µM and the IC50 was above 19.5 µM.

For the compound `C=C1C2CCC3C(CCC4C5(C)CCCC43C3OCCN3C5)(C2)C1OC(C)=O` (stereo unspecified), the outcome was inactive.

On to `COc1cc(/C=C(\NC(=O)c2ccccc2)c2nc3ccc4c(c3[nH]2)C(=O)c2ccccc2C4=O)cc(OC)c1OC`, for which the result was inactive.

For the compound `COC(=O)C12C3C4(C(=O)OC)C1C1(C(=O)OC)C2C3(C(=O)OC)C41C(=O)N(C(C)C)C(C)C` (stereo unspecified), the EC50 was above 200 µM and the IC50 was above 200 µM.

Turning to `CN(C)c1ccc(/C=N/N(Cc2ccccc2)c2ccccc2)cc1`, the EC50 was above 6.03 µM and the IC50 is above 6.03 µM.

For the compound `CC(C)=C/C=C1/CS(=O)(=O)C=C1C`, the EC50 was above 200 µM and the IC50 was 135 µM.

`COC(=O)c1cc2c3ccccc3n(C(C)=O)c2cn1`: the result was inactive.

Take `O=c1cn[nH]c2ccccc12`: the EC50 was above 741 µM and the IC50 is above 741 µM.

`O=C(O)c1ccccc1-c1c2ccc(=O)c(O)c-2oc2c(O)c(O)ccc12` displayed a concentration for a half-maximal effect (EC50) above 25.1 µM and a concentration for half-maximal inhibition (IC50) of 8.71 µM.

`COC(=O)/C=C(/C(=O)OC)C1(C)c2cc(C(=O)OC)c(C(=O)OC)c(N)c2C(=N)N1c1ccccc1` (stereo unspecified): the result was inactive.

For `[O-][n+]1c(-c2ccccc2)c2nc3ccccc3nc2c2ccccc21`, the EC50 was above 39.8 µM and the IC50 was above 39.8 µM.

Consider `CCN(CC)CC(C)(C)C(=O)/C=C/c1ccc(Cl)cc1`, for which the EC50 was above 200 µM and the 50% inhibitory concentration (IC50) turned out to be 7.24 µM.

For the compound `C[C@]12CCCO[C@@H]1CC[C@@H]1[C@@H]2CC[C@]2(C)[C@@H](O)CC[C@@H]12`, the EC50 was above 200 µM and the 50% inhibitory concentration (IC50) was above 200 µM.

`[CH3][Ge]([CH3])([CH2]CC#N)[S]c1ccccc1`: the EC50 was above 200 µM and the IC50 was 20 µM.

With `C/C(CCn1[nH]c(=O)ccc1=O)=N\O`, the EC50 is above 1070 µM and the concentration for half-maximal inhibition (IC50) is above 1070 µM.

Consider `Cc1ccc(-c2c(C#N)c(S)n(NS(=O)(=O)c3ccccc3)c(=O)c2C#N)cc1`, for which the EC50 was above 200 µM and the IC50 worked out at 18.6 µM.

Take `O=c1[nH]c(=O)n(C2OC(CF)C(O)C2O)cc1N1CCOCC1` (stereo unspecified): the EC50 was above 200 µM and the IC50 was above 200 µM.

With `C[C@H]1CC(=O)C2=CCCC3(SCCCS3)[C@@H]2[C@H]1CO`, the outcome was inactive.

For the compound `COC1c2ccccc2C2C(Cl)(Cl)C23c2ccccc2C13` (stereo unspecified), the EC50 is above 12 µM and the IC50 is above 12 µM.

`COc1ccc(OC2OC(CO)C(O)C(O)C2O)cc1` (stereo unspecified): the EC50 is above 200 µM and the IC50 was above 200 µM.

Turning to `O=P(Nc1ccc(Cl)cc1)(Oc1ccccc1)N(CCCl)CCCl` (stereo unspecified), the EC50 is above 17.8 µM and the IC50 is 8.71 µM.

For `NC1=NN(c2ccccc2)C(=O)C1C(=O)C(=O)Nc1nccs1` (stereo unspecified), the EC50 was above 79.4 µM and the IC50 is above 79.4 µM.

For the compound `O=c1oc(-c2ccccc2)c(-c2ccccc2)c(-c2ccccc2)c1-c1ccccc1`, the EC50 is above 46.8 µM and the 50% inhibitory concentration (IC50) was 29.5 µM.

For `N.N.N.O=N[O-].O=N[O-].O=N[O-].[Co+3]`, the outcome was inactive.

Turning to `C(=Nc1cnc2ccccc2c1)c1ccnc2ccccc12`, the EC50 is above 66.1 µM and the half-maximal inhibitory concentration (IC50) came to 3.55 µM.

Turning to `CCOC(=O)C12c3[nH]c4ccccc4c3CCN1CC1=NOC(=O)C12` (stereo unspecified), the EC50 is above 132 µM and the half-maximal inhibitory concentration (IC50) was above 132 µM.

In the case of `Nc1ncnc2c1ncn2C1CCC(COS(N)(=O)=O)C1` (stereo unspecified), the EC50 is above 200 µM and the concentration for half-maximal inhibition (IC50) is above 200 µM.

Regarding `CN1CCC(CNC(=O)CCCCCCCCC(=O)NCC2(c3ccccc3)CCN(C)CC2)(c2ccccc2)CC1`, the EC50 was 97.7 µM and > 100 µM; the half-maximal inhibitory concentration (IC50) was above 100 µM.
